Experimental data as given in ChEMBL document CHEMBL1154064, “Synthesis and DNA cleavage activity of 2-hydrazinyl-1,4,5,6-tetrahydropyrimidine containing hydroxy group” (2009).
Calls of active or inactive are those of the source. The calls are words filed in the database; no cut-off is given here.

Tests used:
HeLa = test: Growth inhibition of human HeLa cells at 1000 uM after 72 hrs by MTT assay; format: functional; parameters: scale not given: the % may be the effect or the level left
Nucleic Acid [1] = test: Binding affinity to Escherichia coli pUC19 DNA assessed as form 2 DNA level at 0.320 mM after 25.35 hrs by agarose gel electrophoresis; format: nucleic-acid assay
Nucleic Acid [2] = test: Binding affinity to Escherichia coli pUC19 DNA assessed as form 1 DNA level at 0.130 mM after 5.42 hrs by agarose gel electrophoresis; format: nucleic-acid assay
Nucleic Acid [3] = test: Binding affinity to Escherichia coli pUC19 DNA assessed as form 2 DNA level at 0.262 mM after 27.07 hrs by agarose gel electrophoresis; format: nucleic-acid assay
Nucleic Acid [4] = test: Binding affinity to Escherichia coli pUC19 DNA assessed as form 2 DNA level at 0.175 mM after 9.07 hrs by agarose gel electrophoresis; format: nucleic-acid assay
Nucleic Acid [5] = test: Binding affinity to Escherichia coli pUC19 DNA assessed as form 2 DNA level at 0.130 mM after 5.42 hrs by agarose gel electrophoresis; format: nucleic-acid assay
Nucleic Acid [6] = test: Binding affinity to Escherichia coli pUC19 DNA assessed as form 1 DNA level at 0.320 mM after 13.07 hrs by agarose gel electrophoresis; format: nucleic-acid assay
Nucleic Acid [7] = test: Binding affinity to Escherichia coli pUC19 DNA assessed as form 2 DNA level at 0.175 mM by agarose gel electrophoresis; format: nucleic-acid assay
Nucleic Acid [8] = test: Binding affinity to Escherichia coli pUC19 DNA assessed as form 2 DNA level at 0.463 mM after 29.33 hrs by agarose gel electrophoresis; format: nucleic-acid assay
Nucleic Acid [9] = test: Binding affinity to Escherichia coli pUC19 DNA assessed as form 2 DNA level at 0.463 mM after 4.95 hrs by agarose gel electrophoresis; format: nucleic-acid assay
Nucleic Acid [10] = test: Binding affinity to Escherichia coli pUC19 DNA assessed as form 1 DNA level at 0.463 mM after 27.33 hrs by agarose gel electrophoresis; format: nucleic-acid assay
Nucleic Acid [11] = test: Binding affinity to Escherichia coli pUC19 DNA assessed as form 2 DNA level at 0.349 mM after 23.02 hrs by agarose gel electrophoresis; format: nucleic-acid assay
Nucleic Acid [12] = test: Binding affinity to Escherichia coli pUC19 DNA assessed as form 2 DNA level at 0.130 mM by agarose gel electrophoresis; format: nucleic-acid assay
Nucleic Acid [13] = test: Binding affinity to Escherichia coli pUC19 DNA assessed as form 2 DNA level at 0.698 mM after 6.42 hrs by agarose gel electrophoresis; format: nucleic-acid assay
Nucleic Acid [14] = test: Binding affinity to Escherichia coli pUC19 DNA assessed as form 1 DNA level at 0.262 mM after 24.08 hrs by agarose gel electrophoresis; format: nucleic-acid assay
Nucleic Acid [15] = test: Binding affinity to Escherichia coli pUC19 DNA assessed as form 1 DNA level at 0.262 mM after 25.02 hrs by agarose gel electrophoresis; format: nucleic-acid assay
Nucleic Acid [16] = test: Binding affinity to Escherichia coli pUC19 DNA assessed as form 1 DNA level at 0.349 mM after 26.15 hrs by agarose gel electrophoresis; format: nucleic-acid assay
Nucleic Acid [17] = test: Binding affinity to Escherichia coli pUC19 DNA assessed as form 2 DNA level at 0.349 mM after 5.40 hrs by agarose gel electrophoresis; format: nucleic-acid assay
Nucleic Acid [18] = test: Binding affinity to Escherichia coli pUC19 DNA assessed as form 1 DNA level at 0.698 mM after 6.42 hrs by agarose gel electrophoresis; format: nucleic-acid assay
Nucleic Acid [19] = test: Binding affinity to Escherichia coli pUC19 DNA assessed as form 1 DNA level at 0.349 mM by agarose gel electrophoresis; format: nucleic-acid assay
Nucleic Acid [20] = test: Binding affinity to Escherichia coli pUC19 DNA assessed as form 2 DNA level at 0.262 mM after 28.18 hrs by agarose gel electrophoresis; format: nucleic-acid assay
Nucleic Acid [21] = test: Binding affinity to supercoiled Escherichia coli pUC19 DNA assessed as formation of nicked circular DNA at 1.10 mM at pH 6.0 for 24 hrs in presence of sodium azide by agarose gel electrophoresis; format: nucleic-acid assay
Nucleic Acid [22] = test: Binding affinity to Escherichia coli pUC19 DNA assessed as form 1 DNA level at 0.349 mM after 28.18 hrs by agarose gel electrophoresis; format: nucleic-acid assay
Nucleic Acid [23] = test: Binding affinity to Escherichia coli pUC19 DNA assessed as form 2 DNA level at 0.130 mM after 8.08 hrs by agarose gel electrophoresis; format: nucleic-acid assay
Nucleic Acid [24] = test: Binding affinity to Escherichia coli pUC19 DNA assessed as form 2 DNA level at 0.463 mM after 13.07 hrs by agarose gel electrophoresis; format: nucleic-acid assay
Nucleic Acid [25] = test: Binding affinity to Escherichia coli pUC19 DNA assessed as form 1 DNA level at 0.698 mM after 23.80 hrs by agarose gel electrophoresis; format: nucleic-acid assay
Nucleic Acid [26] = test: Binding affinity to Escherichia coli pUC19 DNA assessed as form 2 DNA level at 0.320 mM after 23.12 hrs by agarose gel electrophoresis; format: nucleic-acid assay
Nucleic Acid [27] = test: Binding affinity to Escherichia coli pUC19 DNA assessed as form 2 DNA level at 0.698 mM after 14.22 hrs by agarose gel electrophoresis; format: nucleic-acid assay
Nucleic Acid [28] = test: Binding affinity to Escherichia coli pUC19 DNA assessed as form 1 DNA level at 0.463 mM after 31.48 hrs by agarose gel electrophoresis; format: nucleic-acid assay
Nucleic Acid [29] = test: Binding affinity to Escherichia coli pUC19 DNA assessed as form 2 DNA level at 0.349 mM after 24.08 hrs by agarose gel electrophoresis; format: nucleic-acid assay
Nucleic Acid [30] = test: Binding affinity to Escherichia coli pUC19 DNA assessed as form 1 DNA level at 0.130 mM after 8.08 hrs by agarose gel electrophoresis; format: nucleic-acid assay
Nucleic Acid [31] = test: Binding affinity to Escherichia coli pUC19 DNA assessed as form 1 DNA level at 0.130 mM by agarose gel electrophoresis; format: nucleic-acid assay
Nucleic Acid [32] = test: Binding affinity to Escherichia coli pUC19 DNA assessed as form 1 DNA level at 0.262 mM by agarose gel electrophoresis; format: nucleic-acid assay
Nucleic Acid [33] = test: Binding affinity to Escherichia coli pUC19 DNA assessed as form 2 DNA level at 0.175 mM after 27.33 hrs by agarose gel electrophoresis; format: nucleic-acid assay
Nucleic Acid [34] = test: Binding affinity to Escherichia coli pUC19 DNA assessed as form 1 DNA level at 0.463 mM after 9.07 hrs by agarose gel electrophoresis; format: nucleic-acid assay
HL-60 = test: Growth inhibition of human HL60 cells at 100 uM after 72 hrs by MTT assay; format: functional; parameters: scale not given: the % may be the effect or the level left
Nucleic Acid [35] = test: Binding affinity to Escherichia coli pUC19 DNA assessed as form 1 DNA level at 0.262 mM after 23.02 hrs by agarose gel electrophoresis; format: nucleic-acid assay
Nucleic Acid [36] = test: Binding affinity to Escherichia coli pUC19 DNA assessed as form 1 DNA level at 0.463 mM after 13.07 hrs by agarose gel electrophoresis; format: nucleic-acid assay
Nucleic Acid [37] = test: Binding affinity to Escherichia coli pUC19 DNA assessed as form 1 DNA level at 0.463 mM after 29.33 hrs by agarose gel electrophoresis; format: nucleic-acid assay
Nucleic Acid [38] = test: Binding affinity to Escherichia coli pUC19 DNA assessed as form 1 DNA level at 0.698 mM after 12.13 hrs by agarose gel electrophoresis; format: nucleic-acid assay
Nucleic Acid [39] = test: Binding affinity to Escherichia coli pUC19 DNA assessed as form 2 DNA level at 0.463 mM after 23.12 hrs by agarose gel electrophoresis; format: nucleic-acid assay

## Cl.Cl.NNC1=NCC(O)CN1 (stereo unspecified)
HeLa
  Activity: 0%
Nucleic Acid [1]
  Activity: 69.8%
Nucleic Acid [2]
  Activity: 85%
Nucleic Acid [3]
  Activity: 15.3%
Nucleic Acid [4]
  Activity: 6.09%
Nucleic Acid [5]
  Activity: 14.9%
Nucleic Acid [6]
  Activity: 84.7%
Nucleic Acid [7]
  Activity: 2.93%
Nucleic Acid [8]
  Activity: 42.2%
Nucleic Acid [9]
  Activity: 7.36%
Nucleic Acid [10]
  Activity: 59.4%
Nucleic Acid [11]
  Activity: 27.7%
Nucleic Acid [12]
  Activity: 11.4%
Nucleic Acid [13]
  Activity: 13.4%
Nucleic Acid [14]
  Activity: 89.5%
Nucleic Acid [15]
  Activity: 88.1%
Nucleic Acid [16]
  Activity: 68.5%
Nucleic Acid [17]
  Activity: 3.73%
Nucleic Acid [18]
  Activity: 86.6%
Nucleic Acid [19]
  Activity: 97.5%
Nucleic Acid [20]
  Activity: 15.9%
Nucleic Acid [21]
  Activity: inactive
Nucleic Acid [22]
  Activity: 65.6%
Nucleic Acid [23]
  Activity: 16.2%
Nucleic Acid [24]
  Activity: 22.5%
Nucleic Acid [25]
  Activity: 55%
Nucleic Acid [26]
  Activity: 73.4%
Nucleic Acid [27]
  Activity: 28.4%
Nucleic Acid [28]
  Activity: 51.1%
Nucleic Acid [29]
  Activity: 28.1%
Nucleic Acid [30]
  Activity: 83.8%
Nucleic Acid [31]
  Activity: 88.6%
Nucleic Acid [32]
  Activity: 97.2%
Nucleic Acid [33]
  Activity: 24%
Nucleic Acid [34]
  Activity: 83.3%
HL-60
  Activity: 70%
Nucleic Acid [35]
  Activity: 90.1%
Nucleic Acid [36]
  Activity: 77.5%
Nucleic Acid [37]
  Activity: 57.8%
Nucleic Acid [38]
  Activity: 77%
Nucleic Acid [39]
  Activity: 38%
